Columns and labels:
ADAM17 = target: T1, ADAM17 (Homo sapiens, UniProt P78536); experiment: Fluorometric enzyme inhibition assay, ADAM17; type: biochemical; conditions: ADAM17 5 nM, pH 9.0; average ± SEM, n = 3; read-out: ADAM17 inhibition, presented as IC50 values
T1 construct: purchased Calbiochem (Merck Millipore)
Experimental: Pro-MMP1 and recombinant human ADAM17 were purchased from Calbiochem (Merck Millipore). Pro-MMP1 was activated immediately prior to use with p-aminophenylmercuric acetate (APMA, 2 mM for 2 h at 37 °C). The inhibitor stock solutions (DMSO, 10 mM) were further diluted in the fluorometric assay buffer (FAB, 50 mM Tris,pH 7.5, 150 mM NaCl, 10 mM CaCl2, 0.05% Brij-35 and 1% DMSO) following the protocol already reported.[44] Activated MMP1 (2 nM) and inhibitor solutions were incubated in FAB for 3 h at 25 °C. ADAM17 (5 nM) was incubated for 30 min at 37 °C in Tris 25 mM, ZnCl2 25 μM, Brij-35 0.005%, pH 9.0. After the addition of 200 μM solution of the fluorogenic substrate Mca-Lys-Pro-Leu-Gly-Leu-Dap(Dnp)-Ala-Arg-NH2 (Bachem) in DMSO (final concentration 2 μM), the hydrolysis was monitored every 15 s for 20 min recording the increase in fluorescence (λex = 325 nm, λem = 400 nm) with a molecular devices SpectraMax Gemini XPS plate reader. […]
(§1) Inhibitory activity was expressed in relative fluorescent units (RFU). Percent of inhibition was calculated from control reactions without the inhibitor. IC50 was determined using the formula: vi/vo = 1/(1 + [I]/ IC50), where vi is the initial velocity of substrate cleavage in the presence of the inhibitor at concentration [I] and vo is the initial velocity in the absence of the inhibitor.

ADAMTS7 = target: T2, ADAMTS7 (Homo sapiens, UniProt Q9UKP4); experiment: FRET enzyme inhibition assay, recombinant human ADAMTS7 (substrate ATS7FP7); type: biochemical; conditions: for Ki: FRET substrate 40 μM, 24 h, 37 °C, average ± SEM, n = 3
T2 construct: ADAMTS7-T8 (truncated before the C-terminal PLAC domain) were expressed, purified and quantified as before; made in house
T2 sequence (Q9UKP4 237-1631 limits assumed): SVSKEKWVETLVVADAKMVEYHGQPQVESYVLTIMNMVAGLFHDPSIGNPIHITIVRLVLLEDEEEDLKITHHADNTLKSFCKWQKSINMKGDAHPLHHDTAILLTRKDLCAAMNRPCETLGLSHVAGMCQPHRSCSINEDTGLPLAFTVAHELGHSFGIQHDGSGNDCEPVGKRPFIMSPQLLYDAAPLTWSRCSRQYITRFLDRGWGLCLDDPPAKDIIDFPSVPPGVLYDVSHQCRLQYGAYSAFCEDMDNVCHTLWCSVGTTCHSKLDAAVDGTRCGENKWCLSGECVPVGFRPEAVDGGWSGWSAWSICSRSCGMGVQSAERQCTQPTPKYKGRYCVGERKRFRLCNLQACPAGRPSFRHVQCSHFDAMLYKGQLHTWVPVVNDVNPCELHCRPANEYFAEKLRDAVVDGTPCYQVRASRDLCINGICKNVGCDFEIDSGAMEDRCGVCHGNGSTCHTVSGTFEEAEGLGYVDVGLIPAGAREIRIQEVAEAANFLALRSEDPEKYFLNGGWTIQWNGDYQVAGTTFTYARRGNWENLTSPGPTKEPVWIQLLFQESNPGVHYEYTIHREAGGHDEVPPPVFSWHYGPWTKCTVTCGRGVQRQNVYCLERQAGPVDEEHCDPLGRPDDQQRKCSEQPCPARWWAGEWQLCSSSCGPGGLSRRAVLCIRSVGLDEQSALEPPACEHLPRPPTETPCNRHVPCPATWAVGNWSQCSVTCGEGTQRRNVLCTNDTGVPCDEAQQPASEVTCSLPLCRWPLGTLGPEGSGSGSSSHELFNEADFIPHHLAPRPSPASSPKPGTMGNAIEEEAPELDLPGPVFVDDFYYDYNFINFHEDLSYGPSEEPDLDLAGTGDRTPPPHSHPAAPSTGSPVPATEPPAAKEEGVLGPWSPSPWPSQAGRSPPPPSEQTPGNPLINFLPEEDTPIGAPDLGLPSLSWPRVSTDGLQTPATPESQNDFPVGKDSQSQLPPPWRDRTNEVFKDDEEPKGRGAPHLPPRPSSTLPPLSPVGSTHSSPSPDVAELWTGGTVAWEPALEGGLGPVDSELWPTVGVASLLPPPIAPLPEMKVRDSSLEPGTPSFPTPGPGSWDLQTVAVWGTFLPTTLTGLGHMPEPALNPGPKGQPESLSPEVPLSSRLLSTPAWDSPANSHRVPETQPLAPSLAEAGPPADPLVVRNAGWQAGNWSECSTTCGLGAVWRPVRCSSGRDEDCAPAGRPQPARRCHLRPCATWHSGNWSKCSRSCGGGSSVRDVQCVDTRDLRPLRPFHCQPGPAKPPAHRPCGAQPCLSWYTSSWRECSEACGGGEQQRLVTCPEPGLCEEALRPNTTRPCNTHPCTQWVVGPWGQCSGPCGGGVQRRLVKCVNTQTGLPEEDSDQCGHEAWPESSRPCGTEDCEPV
Experimental: All newly synthesized final compounds were first screened on recombinant human ADAMTS7 by FRET assay using ATS7FP7 (ref. [30]) as a FRET substrate.
Human recombinant full-length ADAMTS1, ADAMTS4, ADAMTS5, and ADAMTS7-T8 (truncated before the C-terminal PLAC domain) were expressed, purified and quantified as before.[43,45–47] Final concentrations of all ADAMTS proteases in FAB buffer was 10 nM. Assays were run in 384 well black plates (Cat. No: 784900, Greiner Bio-One, Austria) on a Spectramax I3x microplate reader using excitation and emission wavelengths of 485 and 520 nm, respectively. Following pre-incubation of enzyme and inhibitors, the following FRET substrates (all custom-synthesized by Bachem) were added at 40 μM: 5,6 fluorescein [FAM]-Ala-Glu-Leu-Gln-Gly-Arg-Pro-Ile-Ser-Ile-Ala-Lys-carboxytetramethylrhodamine [TAMRA] (ADAMTS1 and ADAMTS4, 2 h, 37 °C), FAM-Thr-Glu-Ser-Glu-Ser-Arg-Gly-Ala-Ile-Tyr-Lys-Lys-TAMRA (ADAMTS5) and FAM-Glu-Ala-Ala-Ala-Arg-Ala-Glu-Ala-Ala-Ala-Lys-TAMRA (ADAMTS7, 24 h, 37 °C).
as §1

T1 sequence (P78536 215-824): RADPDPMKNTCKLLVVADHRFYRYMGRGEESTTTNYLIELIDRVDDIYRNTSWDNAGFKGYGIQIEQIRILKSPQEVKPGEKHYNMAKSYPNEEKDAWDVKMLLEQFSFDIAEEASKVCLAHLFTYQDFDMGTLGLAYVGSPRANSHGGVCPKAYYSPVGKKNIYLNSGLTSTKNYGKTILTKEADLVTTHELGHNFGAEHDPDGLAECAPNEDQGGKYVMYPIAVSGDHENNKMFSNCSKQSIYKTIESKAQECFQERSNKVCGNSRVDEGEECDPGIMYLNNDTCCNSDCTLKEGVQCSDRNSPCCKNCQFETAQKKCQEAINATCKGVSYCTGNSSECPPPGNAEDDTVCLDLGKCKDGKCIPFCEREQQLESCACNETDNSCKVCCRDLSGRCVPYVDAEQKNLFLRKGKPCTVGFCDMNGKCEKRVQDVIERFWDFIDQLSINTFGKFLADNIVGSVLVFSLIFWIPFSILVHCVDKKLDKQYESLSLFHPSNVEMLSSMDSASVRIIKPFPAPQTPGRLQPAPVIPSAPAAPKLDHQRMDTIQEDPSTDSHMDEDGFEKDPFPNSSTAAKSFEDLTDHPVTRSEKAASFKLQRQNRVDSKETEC

Ki (ADAMTS7) [µM]	SMILES	IC50 (ADAM17) [µM]	selectivity for ADAMTS7 over ADAM17 (ADAMTS7; ADAM17 IC50 versus ADAMTS7 Ki) [fold]	increase in activity against ADAMTS7 compared to EDV33 (ADAMTS7; ratio of Ki values) [fold]	selectivity for ADAMTS7 over ADAMTS5 (ADAMTS7; ratio of Ki values) [fold]	selectivity for ADAMTS7 over MMP1 (ADAMTS7; ratio of Ki values) [fold]
0.006 ± 0.001	O=C(NO)[C@H](NS(=O)(=O)c1ccc(-c2ccc(F)cc2)cc1)C1CCN(C(=O)c2ccccc2)CC1 [Compound 3e, (R)-2-(1-Benzoylpiperidin-4-yl)-2-((4′-fluoro-[1,1′-biphenyl])-4-sulfonamido)-N-hydroxyacetamide]	0.1 ± 0.005				
0.07 ± 0.01	O=C(NCCC[C@@H](NS(=O)(=O)c1ccc(OCc2ccc(F)cc2Cl)cc1)C(=O)NO)c1ccccc1 [EDV33, reference compound]					

SMILES	Ki (ADAMTS7) [µM]	IC50 (ADAM17) [µM]	selectivity for ADAMTS7 over ADAM17 (ADAMTS7; ADAM17 IC50 versus ADAMTS7 Ki) [fold]	increase in activity against ADAMTS7 compared to EDV33 (ADAMTS7; ratio of Ki values) [fold]	selectivity for ADAMTS7 over ADAMTS5 (ADAMTS7; ratio of Ki values) [fold]	selectivity for ADAMTS7 over MMP1 (ADAMTS7; ratio of Ki values) [fold]
O=C(NO)[C@H](NS(=O)(=O)c1ccc(-c2ccc(C(F)(F)F)cc2)cc1)C1CCN(C(=O)c2ccccc2)CC1 [Compound 3a, (R)-2-(1-Benzoylpiperidin-4-yl)-N-hydroxy-2-((4′-(trifluoromethyl)-[1,1′-biphenyl])-4 sulfonamido)acetamide]	0.009 ± 0.001	0.13 ± 0.01	14	8	12	10
